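Cells were grown in 96-well plates and exposed to each compound for 48 hours at five concentrations; endpoints were interpolated linearly between bracketing concentrations, or set to the highest concentration if not reached. GI50 marks 50% less growth. TGI: concentration producing complete growth inhibition.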 Where a SMILES comes first, the peptide text is derived from it. [ ]: non-standard residue; d: D form. Phe(4-Cl) = N[CH](Cc1ccc(Cl)cc1)C(=O)O

Our source for the GI50 and TGI values is PubChem BioAssay (NCI).

Some test systems named below: ACHN renal; CAKI-1 renal; HOP-62 NSCLC; K-562 leukemia; OVCAR-3 ovarian; SF-295 CNS; SNB-75 CNS; UACC-62 melanoma.
Test in all cases: growth of human tumour cells (NCI), 48 h

With `N.N.N.N.N.O=C([O-])c1nn[n-]n1.[Cl-].[Co+3]`, the GI50 in the test on ACHN renal, in the test on CAKI-1 renal, in the test with HOP-62 NSCLC, with K-562 leukemia, in the test with OVCAR-3 ovarian and in the test with SF-295 CNS was more than 100 µM in each case. The GI50 with SNB-75 CNS and in the test on UACC-62 melanoma was more than 100 µM each time. The TGI in the test on ACHN renal, in the test with CAKI-1 renal, in the test with HOP-62 NSCLC, with K-562 leukemia, in the test with OVCAR-3 ovarian and in the test on SF-295 CNS was more than 100 µM throughout. Besides, the TGI with SNB-75 CNS and in the test on UACC-62 melanoma was more than 100 µM throughout.

With `O=C(O)CN(c1ccccc1)S(=O)(=O)c1ccccc1[N+](=O)[O-]`, the TGI in the test on ACHN renal, in the test with CAKI-1 renal, in the test on OVCAR-3 ovarian, in the test on SF-295 CNS, with SNB-75 CNS and with UACC-62 melanoma was more than 100 µM each time.

For the compound `Nc1ccc(/C=C/c2ccnc3ccccc23)cc1`, the TGI with ACHN renal is more than 100 µM; in the test with CAKI-1 renal, 63.9 µM; with HOP-62 NSCLC, 41.5 µM; in the test with K-562 leukemia, 44 µM; in the test with OVCAR-3 ovarian, 48.7 µM; with SF-295 CNS, 46.1 µM. The TGI was determined as 41.8 µM with SNB-75 CNS and 56.9 µM with UACC-62 melanoma.

On to `CCOC(=O)NC(=O)c1cn(CCOCCOC(=O)NCCCCCCNC(=O)OCCOCCn2cc(C(=O)NC(=O)OCC)c(=O)[nH]c2=O)c(=O)[nH]c1=O`, for which the TGI in the test on ACHN renal, with HOP-62 NSCLC, in the test on K-562 leukemia, with OVCAR-3 ovarian, in the test on SF-295 CNS and in the test on SNB-75 CNS was more than 100 µM throughout. The compound also had a TGI in the test on UACC-62 melanoma of more than 100 µM.

For `CC1=C(C)CC2(CCCCC2=O)S(=O)C1` (configuration not stated), the TGI in the test with ACHN renal, in the test with HOP-62 NSCLC, with K-562 leukemia, in the test with OVCAR-3 ovarian, in the test on SF-295 CNS and with SNB-75 CNS was more than 100 µM in each case. Further, in the test on UACC-62 melanoma, the TGI is more than 100 µM.

As to `Cc1ccccc1N(CCC#N)C1=NN(C(=O)CC(=O)Nc2ccccc2)C(c2ccccc2)C1` (configuration not stated), the TGI is more than 100 µM in the test on ACHN renal; more than 100 µM with HOP-62 NSCLC; more than 100 µM in the test on K-562 leukemia; more than 100 µM in the test with OVCAR-3 ovarian; more than 100 µM in the test with SF-295 CNS; 96.7 µM in the test on SNB-75 CNS. This compound also displayed a TGI in the test with UACC-62 melanoma of more than 100 µM.

Turning to `Cn1cc(C(=O)c2ccccc2)ccc1=O`, the TGI in the test on ACHN renal, in the test with CAKI-1 renal, in the test on HOP-62 NSCLC, in the test on K-562 leukemia, in the test with OVCAR-3 ovarian and in the test with SF-295 CNS was more than 100 µM in each case. Further, the TGI in the test with SNB-75 CNS and with UACC-62 melanoma was more than 100 µM each time.

In the case of `CC[O-].CC[O-].O=C1c2ccccc2C(=O)c2c(O)ccc([O-])c21.O=C1c2ccccc2C(=O)c2c(O)ccc([O-])c21.[Ti+4]`, the TGI in the test on ACHN renal, with CAKI-1 renal, with HOP-62 NSCLC, in the test on K-562 leukemia, with OVCAR-3 ovarian and with SF-295 CNS was more than 100 µM throughout. In addition, the TGI in the test on SNB-75 CNS and in the test on UACC-62 melanoma was more than 100 µM throughout.

Regarding `CC(O)C(NC(=O)C(Cc1ccccc1)NC(=O)C(NC(=O)C(CCCCN)NC(=O)C(Cc1c[nH]c2ccccc12)NC(=O)C(Cc1ccc(O)cc1)NC(=O)C(Cc1ccc(Cl)cc1)NC(=O)C(N)Cc1ccccc1)C(C)O)C(N)=O` (configuration not stated) (H-F[Phe(4-Cl)]YWKTFT-NH2; configuration not given here), the TGI was determined as 40.9 µM with ACHN renal; 39.5 µM in the test with CAKI-1 renal; 38.5 µM in the test with HOP-62 NSCLC; 28.9 µM in the test on K-562 leukemia; 36.2 µM with OVCAR-3 ovarian; 21.3 µM in the test with SF-295 CNS. For the same compound, the TGI is 37.4 µM with SNB-75 CNS and 39.8 µM in the test with UACC-62 melanoma.

Regarding `CN(C)P(=O)(/C(N)=N/Nc1ccc([N+](=O)[O-])cc1)N(C)C`, the TGI with ACHN renal, in the test on CAKI-1 renal, in the test with HOP-62 NSCLC, in the test with K-562 leukemia, in the test with OVCAR-3 ovarian and with SNB-75 CNS was more than 100 µM throughout. Further, the TGI with UACC-62 melanoma is more than 100 µM.

Consider `COC(=O)c1cccc2cccc(C(=O)Nc3ccc(C)cc3C)c12`, for which the TGI with ACHN renal, in the test on CAKI-1 renal, in the test with HOP-62 NSCLC, in the test on K-562 leukemia, in the test with OVCAR-3 ovarian and in the test on SF-295 CNS was more than 100 µM throughout. Moreover, the TGI with SNB-75 CNS and in the test with UACC-62 melanoma was more than 100 µM throughout.

For `C=CCCCCCCCCC(=O)NS(=O)(=O)c1ccccc1`, the TGI with ACHN renal, in the test with CAKI-1 renal, in the test with HOP-62 NSCLC, with K-562 leukemia, in the test on OVCAR-3 ovarian and with SF-295 CNS was more than 100 µM each time. The TGI in the test with SNB-75 CNS and with UACC-62 melanoma was more than 100 µM throughout.

On to `CCOC(=O)CN=c1nc(SC)sc2c(C(=O)OCC)nc(Sc3ccccc3)n12`, for which the TGI in the test with CAKI-1 renal, in the test on HOP-62 NSCLC, with K-562 leukemia, with OVCAR-3 ovarian and in the test on UACC-62 melanoma was more than 100 µM in each case.

As for `CC(C)(C)OC(=O)Cc1ccc2c(ccn2Cc2ccccc2)c1`, the TGI in the test on ACHN renal, with CAKI-1 renal, with HOP-62 NSCLC, with K-562 leukemia, in the test on OVCAR-3 ovarian and in the test with SF-295 CNS was more than 100 µM throughout. The TGI in the test on SNB-75 CNS and in the test with UACC-62 melanoma was more than 100 µM in each case.

With `N#Cc1nc(C2OC(COC(=O)c3ccccc3)C(OC(=O)c3ccccc3)C2OC(=O)c2ccccc2)oc1N` (configuration not stated), the TGI in the test on ACHN renal, in the test with CAKI-1 renal, in the test on HOP-62 NSCLC, in the test with K-562 leukemia, in the test with OVCAR-3 ovarian and in the test with SF-295 CNS was more than 100 µM each time. The TGI in the test on SNB-75 CNS and with UACC-62 melanoma was more than 100 µM each time.

As to `Cc1noc(C)c1CCCOC1COc2ccccc2OCCOCCOc2ccccc2OC1`, the TGI in the test on ACHN renal, in the test on CAKI-1 renal, in the test with HOP-62 NSCLC, with K-562 leukemia, in the test on OVCAR-3 ovarian and in the test with SF-295 CNS was more than 100 µM throughout. For the same compound, the TGI with SNB-75 CNS and in the test with UACC-62 melanoma was more than 100 µM each time.
